Laboratory results reported in ChEMBL document CHEMBL2010689 (J Med Chem, 2012).
The source made the active and inactive calls. The calls are words filed in the database; no cut-off is given here.

Assays:
[1] = biological target: BDNF/NT-3 growth factors receptor (Homo sapiens, UniProt Q16620); assay: Inhibition of human TRK-B using ATP as substrate
Adenosine receptor A2a = Adenosine receptor A2a (Homo sapiens, UniProt P29274); assay: Inhibition of adenosine A2A receptor
[2] = Antitumor activity against human U251MG cells xenografted in athymic nude mouse assessed as complete tumor regression at 3 mg/kg, po bid; type: functional, U-251
[3] = biological target: Adenosine receptor A3 (Homo sapiens) (UniProt P0DMS8); assay: Inhibition of adenosine A3 receptor at 10 uM
[4] = biological target: Tyrosine-protein kinase ABL1 (Homo sapiens) (UniProt P00519); assay: Inhibition of ABL at 1 uM
A-375 [5] = assay: Antitumor activity against human A375 cells xenografted in athymic nude mouse assessed as tumor growth inhibition at 10 mg/kg, po bid measured on day 29 relative to control; type: functional; settings: A-375, 696 h, read-out: GI
[6] = Half life in Sprague-Dawley rat at 5 mg/kg, po; type: ADME, organism-based; design: dose 5 mg/kg, route oral; settings: in vivo
[7] = Inhibition of IRK at 1 uM
[8] = Antitumor activity against human U251MG cells xenografted in athymic nude mouse assessed as partial tumor regression at 30 mg/kg, po bid; type: functional, U-251
[9] = biological target: Voltage-gated inwardly rectifying potassium channel KCNH2 (Homo sapiens, UniProt Q12809); assay: Inhibition of human Erg expressed CHO cells; type: cell-based
Mus musculus [10] = assay: Toxicity in athymic nude mouse bearing human U251MG cells assessed as apparent toxicity at 1 to 30 mg/kg, po; type: organism-based, U-251; design: dose 1-30 mg/kg, route oral; settings: in vivo
[11] = biological target: Platelet-derived growth factor receptor alpha (Homo sapiens, UniProt P16234); assay: Inhibition of human PDGFRalpha using ATP as substrate
[12] = biological target: Muscarinic acetylcholine receptor M2 (Homo sapiens) (UniProt P08172); assay: Inhibition of muscarinic M2 receptor at 10 uM
[13] = biological target: Vascular endothelial growth factor receptor 2 (Homo sapiens, UniProt P35968)
Description: Inhibition of human recombinant VEGF-R2 expressed in baculovirus expression system using GST-PLCgamma as substrate after 1 hr by time-resolved fluorescence analysis

[14] = Metabolic stability in dog liver S9 fraction assessed as compound remaining after 2 hrs; type: ADME, subcellular, Canis lupus familiaris; settings: read-out: Stability
[15] = biological target: ALK tyrosine kinase receptor (Homo sapiens, UniProt Q9UM73); assay: Inhibition of human ALK using ATP as substrate
Mus musculus [16] = assay: Toxicity in athymic nude mouse bearing human U251MG cells assessed as morbidity at 1 to 30 mg/kg, po; type: organism-based, U-251; design: dose 1-30 mg/kg, route oral; settings: in vivo
[17] = Inhibition of CDK at 1 uM
Mus musculus [18] = assay: Toxicity in athymic nude mouse bearing human A375 cells assessed as body weight change at 0.1 to 10 mg/kg, po; type: organism-based, A-375; design: dose 0.1-10 mg/kg, route oral; settings: in vivo
[19] = biological target: Insulin-like growth factor 1 receptor (Homo sapiens) (UniProt P08069); assay: Inhibition of IGFR1 at 1 uM
[20] = biological target: Tyrosine-protein kinase JAK2 (Homo sapiens) (UniProt O60674); assay: Inhibition of JAK2 at 1 uM
[21] = biological target: Muscarinic acetylcholine receptor M4 (Homo sapiens) (UniProt P08173); settings: 10 uM
Description: Inhibition of muscarinic M4 receptor at 10 uM

A-375 [22] = assay: Antitumor activity against human A375 cells xenografted in athymic nude mouse assessed as partial tumor regression at 0.3 mg/kg, po bid
[23] = biological target: High affinity nerve growth factor receptor (Homo sapiens, UniProt P04629); assay: Inhibition of human TRK-A using ATP as substrate
HUVEC [24] = assay: Antiangiogenic activity in HUVEC assessed as inhibition of FGF-induced proliferation; type: functional, cell-based; settings: Homo sapiens
HUVEC [25] = assay: Cytotoxicity against HUVEC; type: cell-based; settings: human
[26] = biological target: Glycogen synthase kinase-3 beta (Homo sapiens) (UniProt P49841); assay: Inhibition of GSK3beta at 1 uM
[27] = Antitumor activity against human U251MG cells xenografted in athymic nude mouse assessed as partial tumor regression at 3 mg/kg, po bid; type: functional, U-251
[28] = Volume of distribution in cynomolgus monkey at 0.5 mg/kg, iv; type: ADME, organism-based, Macaca fascicularis; design: dose 0.5 mg/kg, route intravenous; settings: in vivo
[29] = AUC in cynomolgus monkey at 3 mg/kg, po; type: ADME, organism-based, Macaca fascicularis; design: dose 3 mg/kg, route oral; settings: plasma
[30] = Inhibition of Mek at 1 uM
Aorta = assay: Antiangiogenic activity in rat aortic rings assessed as inhibition of peak phase microvessel growth; type: functional, tissue-based
A-375 [31] = assay: Antitumor activity against human A375 cells xenografted in athymic nude mouse assessed as partial tumor regression at 3 mg/kg, po bid; type: functional
[32] = Antitumor activity against human U251MG cells xenografted in athymic nude mouse assessed as tumor growth inhibition at 3 mg/kg, po bid measured on day 29 relative to control; type: functional; settings: U-251, 696 h, read-out: GI
[33] = Antiangiogenic activity in BAEC assessed as inhibition of VEGF-induced migration; type: functional; settings: Bos taurus
[34] = biological target: Type-1 angiotensin II receptor (Homo sapiens) (UniProt P30556); assay: Inhibition of angiotensin AT1 at 10 uM

Tyrosine-protein kinase JAK2 (Homo sapiens), sequence (O60674 whole entry): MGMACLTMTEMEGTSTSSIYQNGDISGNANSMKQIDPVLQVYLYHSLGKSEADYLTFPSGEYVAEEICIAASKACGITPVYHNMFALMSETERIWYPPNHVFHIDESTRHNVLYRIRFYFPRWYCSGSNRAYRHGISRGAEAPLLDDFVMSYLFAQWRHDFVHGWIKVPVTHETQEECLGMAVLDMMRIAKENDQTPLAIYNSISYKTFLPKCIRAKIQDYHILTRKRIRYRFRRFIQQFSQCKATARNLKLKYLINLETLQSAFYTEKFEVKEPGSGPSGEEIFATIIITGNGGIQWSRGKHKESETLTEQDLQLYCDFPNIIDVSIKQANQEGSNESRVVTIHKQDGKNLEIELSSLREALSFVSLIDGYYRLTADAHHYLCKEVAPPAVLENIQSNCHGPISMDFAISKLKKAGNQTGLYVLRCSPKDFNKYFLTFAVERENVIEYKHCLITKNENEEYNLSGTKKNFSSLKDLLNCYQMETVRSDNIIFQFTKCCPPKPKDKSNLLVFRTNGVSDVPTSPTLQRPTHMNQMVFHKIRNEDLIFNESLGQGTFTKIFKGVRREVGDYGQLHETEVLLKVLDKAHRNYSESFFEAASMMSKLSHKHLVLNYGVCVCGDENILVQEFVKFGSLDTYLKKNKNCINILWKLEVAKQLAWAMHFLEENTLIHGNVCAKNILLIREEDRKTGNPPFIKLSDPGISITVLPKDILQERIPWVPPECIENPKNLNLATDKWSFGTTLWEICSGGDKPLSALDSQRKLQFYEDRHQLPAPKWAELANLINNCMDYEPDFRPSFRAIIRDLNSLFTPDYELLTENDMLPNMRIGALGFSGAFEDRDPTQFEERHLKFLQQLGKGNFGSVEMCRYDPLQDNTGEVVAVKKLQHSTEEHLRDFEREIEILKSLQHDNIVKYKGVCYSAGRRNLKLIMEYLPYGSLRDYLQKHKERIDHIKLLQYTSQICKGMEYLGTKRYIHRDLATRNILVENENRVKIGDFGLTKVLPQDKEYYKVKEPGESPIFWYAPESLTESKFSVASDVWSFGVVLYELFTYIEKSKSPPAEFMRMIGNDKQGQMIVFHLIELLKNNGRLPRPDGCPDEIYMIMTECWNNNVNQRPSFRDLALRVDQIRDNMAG
Vascular endothelial growth factor receptor 2, sequence (P35968 whole entry): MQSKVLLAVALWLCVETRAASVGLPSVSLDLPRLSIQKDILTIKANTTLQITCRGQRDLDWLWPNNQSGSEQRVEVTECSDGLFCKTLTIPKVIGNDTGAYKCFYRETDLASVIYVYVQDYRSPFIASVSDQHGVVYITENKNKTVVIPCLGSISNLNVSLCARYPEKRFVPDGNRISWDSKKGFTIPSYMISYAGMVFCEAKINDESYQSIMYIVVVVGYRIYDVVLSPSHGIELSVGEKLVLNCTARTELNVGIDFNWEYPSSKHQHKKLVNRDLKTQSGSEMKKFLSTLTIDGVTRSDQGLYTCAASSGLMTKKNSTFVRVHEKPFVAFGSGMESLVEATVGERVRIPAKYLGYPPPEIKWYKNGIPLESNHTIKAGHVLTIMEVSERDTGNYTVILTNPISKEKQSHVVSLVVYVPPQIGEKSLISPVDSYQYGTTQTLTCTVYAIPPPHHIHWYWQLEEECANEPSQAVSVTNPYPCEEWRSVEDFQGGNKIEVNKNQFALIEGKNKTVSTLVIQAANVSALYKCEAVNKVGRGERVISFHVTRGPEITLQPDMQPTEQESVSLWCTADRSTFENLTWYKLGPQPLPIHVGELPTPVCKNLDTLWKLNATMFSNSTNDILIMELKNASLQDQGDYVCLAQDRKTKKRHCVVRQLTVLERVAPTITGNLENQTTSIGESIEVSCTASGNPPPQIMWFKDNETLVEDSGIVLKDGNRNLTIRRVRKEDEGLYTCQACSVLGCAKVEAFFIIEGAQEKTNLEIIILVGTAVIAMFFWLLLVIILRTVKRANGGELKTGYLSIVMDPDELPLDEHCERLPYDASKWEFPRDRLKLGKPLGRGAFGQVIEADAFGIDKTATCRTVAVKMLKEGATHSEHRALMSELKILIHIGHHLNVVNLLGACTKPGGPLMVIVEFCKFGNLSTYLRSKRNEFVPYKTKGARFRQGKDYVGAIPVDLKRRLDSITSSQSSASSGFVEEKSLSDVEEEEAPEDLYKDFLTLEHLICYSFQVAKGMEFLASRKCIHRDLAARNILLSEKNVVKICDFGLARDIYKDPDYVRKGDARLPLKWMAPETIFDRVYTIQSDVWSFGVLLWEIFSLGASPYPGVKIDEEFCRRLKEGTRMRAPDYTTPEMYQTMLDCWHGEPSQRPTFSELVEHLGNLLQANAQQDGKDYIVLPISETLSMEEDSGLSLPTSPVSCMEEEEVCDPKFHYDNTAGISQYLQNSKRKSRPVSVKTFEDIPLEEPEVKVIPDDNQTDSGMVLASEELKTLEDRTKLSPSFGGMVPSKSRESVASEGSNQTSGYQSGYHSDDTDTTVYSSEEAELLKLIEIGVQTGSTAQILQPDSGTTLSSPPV
Muscarinic acetylcholine receptor M4 (Homo sapiens), sequence (P08173 whole entry): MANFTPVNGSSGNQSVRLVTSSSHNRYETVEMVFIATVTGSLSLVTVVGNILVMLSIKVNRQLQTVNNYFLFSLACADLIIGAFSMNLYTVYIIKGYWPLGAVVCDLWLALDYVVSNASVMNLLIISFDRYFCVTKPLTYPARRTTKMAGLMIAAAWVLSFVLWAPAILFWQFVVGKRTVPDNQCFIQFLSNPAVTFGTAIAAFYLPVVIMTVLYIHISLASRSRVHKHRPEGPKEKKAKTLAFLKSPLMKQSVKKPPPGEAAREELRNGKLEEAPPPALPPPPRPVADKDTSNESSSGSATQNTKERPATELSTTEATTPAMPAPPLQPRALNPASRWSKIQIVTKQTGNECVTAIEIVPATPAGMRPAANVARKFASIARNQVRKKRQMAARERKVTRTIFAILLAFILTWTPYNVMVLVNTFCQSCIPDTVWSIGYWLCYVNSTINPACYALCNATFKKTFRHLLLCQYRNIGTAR
Tyrosine-protein kinase ABL1 (Homo sapiens), sequence (P00519 whole entry): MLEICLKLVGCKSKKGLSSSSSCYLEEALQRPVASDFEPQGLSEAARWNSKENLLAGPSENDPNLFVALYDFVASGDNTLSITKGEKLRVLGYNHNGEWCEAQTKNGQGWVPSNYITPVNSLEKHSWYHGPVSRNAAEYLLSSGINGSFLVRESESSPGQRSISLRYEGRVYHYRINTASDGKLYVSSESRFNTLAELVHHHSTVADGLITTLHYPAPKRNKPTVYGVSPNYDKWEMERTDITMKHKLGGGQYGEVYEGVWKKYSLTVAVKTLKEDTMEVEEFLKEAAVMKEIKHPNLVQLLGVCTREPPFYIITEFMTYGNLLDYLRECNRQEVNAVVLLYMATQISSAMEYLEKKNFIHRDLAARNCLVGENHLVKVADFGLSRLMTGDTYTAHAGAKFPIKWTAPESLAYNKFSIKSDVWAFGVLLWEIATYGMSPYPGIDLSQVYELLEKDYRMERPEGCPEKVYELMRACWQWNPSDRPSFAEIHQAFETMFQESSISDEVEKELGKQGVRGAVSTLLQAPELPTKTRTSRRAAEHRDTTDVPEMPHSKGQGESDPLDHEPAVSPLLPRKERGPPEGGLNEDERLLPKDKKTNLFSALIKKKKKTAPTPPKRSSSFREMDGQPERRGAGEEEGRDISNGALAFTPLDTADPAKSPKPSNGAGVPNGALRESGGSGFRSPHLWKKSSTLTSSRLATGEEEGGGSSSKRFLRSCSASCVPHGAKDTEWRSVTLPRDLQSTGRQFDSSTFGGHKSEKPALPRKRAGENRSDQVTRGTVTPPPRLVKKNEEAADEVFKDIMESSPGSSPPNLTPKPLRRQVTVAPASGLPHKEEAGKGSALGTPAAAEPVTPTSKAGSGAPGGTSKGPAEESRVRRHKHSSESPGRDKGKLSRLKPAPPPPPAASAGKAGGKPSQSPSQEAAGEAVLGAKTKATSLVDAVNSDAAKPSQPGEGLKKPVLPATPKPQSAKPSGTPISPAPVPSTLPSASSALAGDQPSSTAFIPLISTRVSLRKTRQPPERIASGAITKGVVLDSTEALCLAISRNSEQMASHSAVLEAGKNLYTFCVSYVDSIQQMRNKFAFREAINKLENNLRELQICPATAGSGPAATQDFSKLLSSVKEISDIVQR
BDNF/NT-3 growth factors receptor, sequence (Q16620 whole entry): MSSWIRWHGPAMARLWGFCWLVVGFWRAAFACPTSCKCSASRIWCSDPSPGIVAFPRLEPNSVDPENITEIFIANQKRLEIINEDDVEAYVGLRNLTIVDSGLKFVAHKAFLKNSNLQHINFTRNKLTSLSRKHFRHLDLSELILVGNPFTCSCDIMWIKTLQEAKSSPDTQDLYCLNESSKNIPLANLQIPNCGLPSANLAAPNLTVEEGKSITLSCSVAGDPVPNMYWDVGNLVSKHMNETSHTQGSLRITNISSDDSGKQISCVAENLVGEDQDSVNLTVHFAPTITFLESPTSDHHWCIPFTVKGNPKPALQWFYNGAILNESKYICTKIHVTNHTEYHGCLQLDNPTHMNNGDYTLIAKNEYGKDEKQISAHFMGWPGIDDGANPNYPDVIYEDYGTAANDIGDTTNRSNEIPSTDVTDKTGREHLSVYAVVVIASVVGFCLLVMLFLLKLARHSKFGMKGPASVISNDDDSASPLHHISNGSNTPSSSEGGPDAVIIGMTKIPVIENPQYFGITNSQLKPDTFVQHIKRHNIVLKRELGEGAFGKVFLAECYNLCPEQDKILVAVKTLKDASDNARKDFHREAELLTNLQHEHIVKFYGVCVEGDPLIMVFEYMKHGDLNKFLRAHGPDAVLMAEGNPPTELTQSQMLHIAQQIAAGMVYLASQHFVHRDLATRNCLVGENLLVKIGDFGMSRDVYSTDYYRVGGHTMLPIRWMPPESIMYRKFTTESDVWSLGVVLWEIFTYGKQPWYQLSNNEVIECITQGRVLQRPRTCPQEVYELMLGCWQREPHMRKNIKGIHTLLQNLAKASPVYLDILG

CC(C)Cn1c2ccc(Nc3ncccn3)cc2c2c3c(c4c(c21)CCc1nn(C)cc1-4)C(=O)NC3 [CEP-11981]
IC50 [1]: 5 nM | Ki (Adenosine receptor A2a): 500 nM | Activity [2]: 0% | inhibition [3]: > 80% | inhibition [4]: Active | inhibition in vivo at 10 mg/kg (A-375 [5]): 98% | half-life [6]: 3 h | inhibition [7]: Active | Activity [8]: 44% | IC50 [9]: 20000 nM | Activity (Mus musculus [10]): Non-toxic | IC50 [11]: 246 nM | inhibition [12]: > 80% | IC50 [13]: 4 nM | remaining at 2 h [14]: 65% | IC50 [15]: 132 nM | Activity (Mus musculus [16]): Non-toxic | inhibition [17]: Active | Activity (Mus musculus [18]): Non-toxic | inhibition [19]: Active | inhibition [20]: Active | inhibition [21]: > 80% | Activity (A-375 [22]): 20% | IC50 [23]: 3 nM | EC50 (HUVEC [24]): 8 nM | Activity (HUVEC [25]): Non-toxic | inhibition [26]: Active | Activity [27]: 0% | Vd [28]: 2.6 L/kg | AUC [29]: 2480 ng·h/mL | inhibition [30]: Active | Activity (Aorta): Dose-dependent effect | EC50 (Aorta): 4 nM | Activity (A-375 [31]): 11% | inhibition in vivo at 3 mg/kg [32]: 61% | EC50 [33]: 8 nM | inhibition [34]: > 80%
